Reference: patent US20130210907A1, “METHOD FOR PREVENTING OR TREATING ENTEROCHROMAFFIN CELL HYPERPLASIA-RELATED DISEASES BY QUERCETIN ADMINISTRATION” (HONG KONG BAPTIST UNIVERSITY, priority 2012, published 2013)

Legend:
Format in all cases: in vivo, rat
[1] = test system: PI-IBS rats; test: Abdominal withdrawal reflex (AWR) test: pain threshold pressure to colorectal distension
Experimental: Sprague-Dawley male rats (Laboratory Animal Services Centre, The Chinese University of Hong Kong) aged 6 weeks with body weight around 220 g are used to develop PI-IBS model. Briefly, rats are fasted for 24 h, and deeply anesthetized with chloral hydrate (350 mg.kg^−1, i.p.). After induction of colitis by 2,4,6-trinitrobenzenesulfonic acid solution (TNBS, 5 mg/0.8 ml/rat, in 50% ethanol, 8 cm from anus) administration, the rats are allowed to recover for at least 4 weeks before use. The control rats are similarly administered with 0.8 ml saline instead of TNBS. Only the rats that have completely recovered from the initial inflammation and acquired visceral hypersensitivity are used as the PI-IBS rats.
6 groups of 12 rats are tested. Normal rats (Group 1) are treated with water. PI-IBS rats are randomly divided into 5 groups and orally treated with water (Group 2), Doxantrazole (mast cell stabilizer, 30 mg/kg/d, Group 3), and Quercetin (Group 4-6) at the dose of 5, 10, and 20 mg/kg/d, respectively. After 2 weeks daily drug administration, 5 rats in each group are used to measure pain threshold pressure by abdominal withdrawal reflex (AWR) test, and the remaining […] is used for electromyography (EMG) recording.
AWR test is performed as previously described in Al-Chaer E D, Kawasaki M, Pasricha P J. A new model of chronic visceral hypersensitivity in adult rats induced by colon irritation during postnatal development. Gastroenterology. 2000 November; 119(5):1276-85. Briefly, rats are lightly anesthetized with ether; a latex balloon is inserted into the descending colon. Rats are then allowed to recover for about 1 h. The tube of the balloon is connected via a Y-connector to a sphygmomanometer and colorectal distension is applied in increments of 5 mmHg until a visible contraction of the abdominal wall is observed by an investigator blinded to the treatment. The pain threshold pressure is defined as the intensity of colorectal distension (CRD) that elicited an observable AWR, i.e. a sudden and persistent abdominal muscle contraction with abdomen lift off the platform. The pain threshold pressure of all groups is recorded and repeated five times with intervals of at least 5 minutes for recovery. EMG recording are conducted as previously described in Tammpere A, Brusberg M, Axenborg J, Hirsch I, Larsson H, Lindstrom E. Evaluation of pseudo-affective responses to noxious colorectal distension in rats by manometric recordings. Pain. 2005 August; 116(3):220-6 and Li Z, Zhang X J, Xu H X, Sung J J, Bian Z X. Intracolonical administration of protease-activated receptor-2 agonists produced visceral hyperalgesia by up-regulating serotonin in the colon of rats. Eur J. Pharmacol. 2009 Mar. 15; 606(1-3):199-204. Firstly, a surgical operation is made to implant the electrodes into the left external abdominal oblique muscles 7 days before EMG recording. After the last drug administration, a flexible latex balloon is inserted into the rat descending colon, and the rats are allowed to accommodate for 1 h. CRD is initiated, and the EMG signal is amplified and filtered by Power Lab System. Graded colorectal distension (20, 40, 60, and 80 mmHg; 20 s duration; 2 min inter-stimulus interval) is carried out for total three cycles to each rat. The changes of area under the curve (AUC) are calculated using that during 20 s distension period over the 20 s baseline.

[2] = test system: PI-IBS rats; test: Mechanical stimuli (CRD)-induced 5-HT release: colonic 5-HT content with or without CRD
Experimental: (§1) 5-HT content in the colon tissue is assayed based on our previously reported procedure in Qi S D, Tian S L, Xu H X, Sung J J, Bian Z X. Quantification of luminally released serotonin in rat proximal colon by capillary electrophoresis with laser-induced fluorescence detection. Anal Bioanal Chem. 2009 April; 393(8):2059-66. Briefly, the colon segment is homogenized in 15% iced trichloroacetic acid; for 2 min and stored at 4° C. for 2 h. After centrifuge at 10,000 G for 15 min, the supernatant of each sample is filtered using 0.22 μm filters and extracted with diethyl ether for five times to remove the trichloroacetic acid. The prepared samples are added to derivatization solution (150 mM sodium tetraborate, 25% acetonitrile, 2 mM CFSE) and incubated for […] in dark at room temperature. The 5-HT content is analyzed by capillary electrophoresis with laser-induced fluorescence detection and expressed as nanogram per milligram (wet weight of tissue).
To determine whether mechanical stimuli (CRD) can induce colonic 5-HT release in PI-IBS rats, and whether Quercetin has effect on it, 5-HT content in colonic tissue is evaluated in rats with or without AWR test. The colon tissues for 5-HT content determination are collected from the rats from Example 1 and Example 2, and the methods for 5-HT content determination are followed as described in Example 2.

[3] = test system: PI-IBS rats; test: Colonic tissue 5-HT content (capillary electrophoresis, laser-induced fluorescence); conditions: 30 mg/kg i.g.
Experimental: (§2) Six groups of 5 rats are tested. The groups setting and treatments are as described in Example 1. Different from Example 1, AWR test are not applied to the rats in this experiment in order to obtain the basal data without CRD stimulus. After the last drug administration, a 6 cm proximal colon (1-2 cm from caecum) is collected and divided into 3 parts, the proximal is fixed in 4% paraformaldehyde and embedded in paraffin for EC cell staining; the middle part is collected for 5-HT content measurement and electron microscopic evaluation, and the distal part is for western blotting analysis.
as §1

[4] = test system: PI-IBS rats; test: Colonic EC cell counting (silver staining); conditions: 30 mg/kg i.g.
Experimental: as §2
Tissue sections (5-μm thick) are deparaffinized and rehydrated for silver staining. Briefly, sections are incubated with 5% ammoniacal silver solution for 4 h at room temperature, then 2 h in 56° C. and subsequently 12 h at room temperature in a dark humidified chamber. After rinsing with water, 5% sodium hyposulfite is added and the tissue sections are incubated for 5 min at room temperature. The brown to black silver precipitate in the cytoplasm of EC cells represents as a positive reaction. A researcher blinded to treatment counted 5 random fields at 200× magnifications for each section, and the number of EC cells per mm^2 of mucosa is quantified using Image J NIH software.

SMILES: O=C1c2ccccc2S(=O)(=O)c2cc(-c3nnn[nH]3)ccc21 [Doxantrazole, reference compound]
- Pain threshold pressure, after treatment ([1]; 30 mg/kg i.g. daily, 2 weeks): 29 ± 1.2 mmHg
- Pain threshold pressure, before treatment ([1]; 30 mg/kg i.g. group, before treatment): 25 ± 1.3 mmHg
- 5-HT content of tissue, +CRD ([2]; 30 mg/kg i.g., after CRD): 2.62 ± 0.30 ng/mg
- 5-HT content of tissue, -CRD ([2]; 30 mg/kg i.g., without CRD): 5.75 ± 0.44^ ng/mg
- Decrease of colon tissue 5-HT content after CRD application ([2]; 30 mg/kg, p<0.05): ~54.4%
- Effect on colonic 5-HT content in PI-IBS rats [3]: no marked effects
- 5-HT content ([3]; PI-IBS rats, colon): 5.75 ± 0.44^ ng/mg
- Effect on colonic EC cells number in PI-IBS rats [4]: no marked effects
- EC cell density ([4]; PI-IBS rats, colon): 95 ± 10 Number/mm^2
